Measured values published in ChEMBL document CHEMBL1159201, “Microbial biotransformation of veratramine” (J Nat Prod, 1998).
≈ marks a conversion by molar mass, not a printed value.

Legend:
[1] = test system: Vero; assay: Cytotoxicity against african green monkey Vero cells; format: cell-based; conditions: chlorocebus sabaeus
[2] = test system: Plasmodium falciparum; assay: Antiplasmodial activity against Plasmodium falciparum W2; format: functional, organism-based

## Cc1c([C@H](C)[C@@H]2NC[C@@H](C)C[C@H]2O)ccc2c1C[C@H]1[C@H]2CCC2=CC(=O)CC[C@@]21C
[1]
  Activity: Non-toxic

## Cc1c([C@H](C)[C@@H]2NC[C@@H](C)C[C@H]2O)ccc2c1C[C@H]1[C@H]2CCC2=CC(=O)C=C[C@@]21C
[2]
  IC50: 3.6 µg/mL (≈ 8.88 µM)
[1]
  Activity: Non-toxic

## Cc1c([C@H](C)[C@@H]2NC[C@@H](C)C[C@H]2O)ccc2c1C[C@H]1[C@H]2CC[C@H]2CC(=O)CC[C@@]21C [DIHYDROVERATRAM-3-ONE]
[1]
  Activity: Non-toxic

## Cc1c([C@H](C)[C@@H]2NC[C@@H](C)C[C@H]2O)ccc2c1C[C@H]1[C@H]2CC=C2C[C@@H](O)CC[C@@]21C [VERATRAMINE]
[1]
  Activity: Non-toxic
